Source: US11840686B2, “Modulation of prekallikrein (PKK) expression” (Ionis Pharmaceuticals, Inc., priority 2013, dated 2023)
Strand notation (5' to 3'): a small letter for the sugar, then the base; units joined by * are phosphorothioate-linked, units joined directly phosphodiester-linked; [ ] holds rarer units or linkages, { } end groups; capitals alone tell only the bases. e = 2'-O-(2-methoxyethyl) (MOE); [5mC] = 5-methylcytosine; d = 2'-deoxy (DNA)

What was measured:
PKK protein = test: Plasma PKK protein levels in human KLKB1 transgenic mice (Example 7); assay type: in vivo; details: plasma, twice a week for 3 weeks
Experimental: (§1) Transgenic mice containing a 37,390 base pair fragment of the human KLKB1 gene sequence (chromosome 4: position 187148672-187179625, accession no: NC_000004.11) were treated with ISIS antisense oligonucleotides selected from studies described above, which were evaluated for efficacy in this model.
(§2) Groups of transgenic mice were injected subcutaneously twice a week for 3 weeks with 2.5 mg/kg/week, 5.0 mg/kg/week, 10 mg/kg/week or 20 mg/kg/week of ISIS 546232, ISIS 546251, ISIS 546254, ISIS 546343, ISIS 546828, ISIS 547455, ISIS 547457, ISIS 547927, and ISIS 548048. One group of transgenic mice was injected subcutaneously twice a week for 3 weeks with PBS. Mice were euthanized 48 hours after the last dose, and organs and plasma were harvested for further analysis.
Plasma PKK protein levels were evaluated in all groups. Results are presented as percent inhibition of PKK protein, relative to PBS control.

human PKK mRNA [1] = test: Dose-dependent antisense inhibition of human PKK in HepaRG cells, 0.19-5.00 uM (Example 5); assay type: cell-based
Outline: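 HepaRG cells (20,000/well) were electroporated with antisense oligonucleotide at 0.19, 0.56, 1.67 and 5.00 μM and treated for about 16 hours. PKK mRNA was quantified by qRT-PCR with primer probe set RTS3454, normalised to RIBOGREEN total RNA, and IC50 was derived per oligonucleotide.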

human PKK mRNA [2] = test: Human PKK mRNA in liver of human KLKB1 transgenic mice (Example 7); assay type: in vivo; details: twice a week for 3 weeks
Experimental: as §1, §2
To evaluate the effect of ISIS oligonucleotides on target reduction, RNA was extracted from liver tissue for real-time PCR analysis of human PKK. Results are presented as percent inhibition of PKK mRNA, relative to PBS control.

PKK mRNA = PKK mRNA in cynomolgus monkey liver (Example 8); assay type: in vivo; details: 40 mg/kg s.c., loading then weekly to week 13; day 87 or 88, 48 h after final dose
Experimental: Cynomolgus monkeys were treated with ISIS antisense oligonucleotides selected from studies described above. Antisense oligonucleotide efficacy and tolerability were evaluated. The human antisense oligonucleotides tested are cross-reactive with the rhesus genomic sequence (GENBANK Accession No. NW_001118167.1 truncated from nucleotides 2358000 to 2391000 and designated herein as SEQ ID NO: 18).
On day 87 or 88, 48 hours after the final dose, RNA was extracted from liver tissue for real-time PCR analysis of PKK using primer probe set RTS3455 (forward sequence […], designated herein as SEQ ID NO: 23; reverse sequence […], designated herein as SEQ ID NO: 24; probe sequence […], designated herein as SEQ ID NO: 25). The results were normalized to the housekeeping gene, Cyclophilin. Results are presented as percent inhibition of PKK mRNA, relative to PBS control.

human PKK mRNA [3] = test: Antisense inhibition of human PKK mRNA in HepaRG cells, 5,000 nM (Example 2); assay type: cell-based; details: electroporation with 5,000 nM antisense oligonucleotide, approx. 24 hours, PKK mRNA by RT-PCR (RTS3454), relative to untreated control cells
Outline: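 Percent inhibition of PKK mRNA is reported relative to untreated cells, after adjustment for total RNA by RIBOGREEN. Gapmers of 16–20 nucleosides with 2′-MOE wings were delivered at 5,000 nM by electroporation into HepaRG cells and left for roughly 24 hours before RNA isolation.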

[4] = HepaRG cells, electroporation, approximately 16 hours, Table 36
[5] = HepaRG cells, electroporation, approximately 16 hours, Table 41
[6] = 4 point dose response, HepaRG cells, Table 41
[7] = Table 34, HepaRG, electroporation, ~16 h
[8] = Table 34, PKK mRNA, HepaRG, electroporation, ~16 h

Substance	% inhibition of PKK protein levels in the transgenic mice relative to the PBS control (PKK protein; 2.5 mg/kg/week sc) [%]	% inhibition of PKK protein levels in the transgenic mice relative to the PBS control (PKK protein; 5 mg/kg/week sc) [%]	% inhibition of PKK protein levels in the transgenic mice relative to the PBS control (PKK protein; 10 mg/kg/week sc) [%]	% inhibition of PKK protein levels in the transgenic mice relative to the PBS control (PKK protein; 20 mg/kg/week sc) [%]	% inhibition of PKK mRNA in the transgenic mice liver relative to the PBS control (human PKK mRNA [2]; 2.5 mg/kg/week sc) [%]	% inhibition of PKK mRNA in the transgenic mice liver relative to the PBS control (human PKK mRNA [2]; 5 mg/kg/week sc) [%]	% inhibition of PKK mRNA in the transgenic mice liver relative to the PBS control (human PKK mRNA [2]; 10 mg/kg/week sc) [%]	% inhibition of PKK mRNA in the transgenic mice liver relative to the PBS control (human PKK mRNA [2]; 20 mg/kg/week sc) [%]	% inhibition of PKK mRNA in the cynomolgus monkey liver relative to the PBS control (PKK mRNA) [%]	percent inhibition of PKK at 5.00 μM (human PKK mRNA [1]; [5]) [%]	percent inhibition of PKK at 0.19 0μM (human PKK mRNA [1]; [5]) [%]	percent inhibition of PKK at 0.56 0μM (human PKK mRNA [1]; [5]) [%]	percent inhibition of PKK at 1.67 1μM (human PKK mRNA [1]; [5]) [%]	IC50 (human PKK mRNA [1]; [6]) [nM]	percent inhibition of PKK at 0.19 μM (human PKK mRNA [1]; [7]) [%]	percent inhibition of PKK at 0.56 μM (human PKK mRNA [1]; [7]) [%]	percent inhibition of PKK at 1.67 μM (human PKK mRNA [1]; [7]) [%]	percent inhibition of PKK at 5.00 μM (human PKK mRNA [1]; [7]) [%]	IC50 (human PKK mRNA [1]; [8]) [nM]	other results
546251 (eG*eG*e[5mC]*eA*eA*dA*d[5mC]*dA*dT*dT*d[5mC]*dA*d[5mC]*dT*d[5mC]*e[5mC]*eT*eT*eT*eA) [compound 546251]	22	30	52	69	13	51	66	79	90	–	–	–	–	–	–	–	–	–	–	percent inhibition of PKK at 0.19 μM (human PKK mRNA [1]; [4]): 31%; percent inhibition of PKK at 0.56 μM (human PKK mRNA [1]; [4]): 60%; percent inhibition of PKK at 1.67 μM (human PKK mRNA [1]; [4]): 99%; percent inhibition of PKK at 5.00 μM (human PKK mRNA [1]; [4]): 89%; IC50 (human PKK mRNA [1]; 4 point dose response, HepaRG cells, Table 36): 500 nM; percent inhibition of PKK mRNA, 0.19 μM (human PKK mRNA [1]; HepaRG cells, 0.19 μM antisense oligonucleotide): 19%; percent inhibition of PKK mRNA, 0.56 μM (human PKK mRNA [1]; HepaRG cells, 0.56 μM antisense oligonucleotide): 45%; percent inhibition of PKK mRNA, 1.67 μM (human PKK mRNA [1]; HepaRG cells, 1.67 μM antisense oligonucleotide): 91%; percent inhibition of PKK mRNA, 5.00 μM (human PKK mRNA [1]; HepaRG cells, 5.00 μM antisense oligonucleotide): 97%; IC50 (human PKK mRNA [1]; HepaRG cells, 0.19-5.00 μM): 600 nM; % inhibition (human PKK mRNA [3]; Table 7, HepaRG cells): 92%
546343 (antisense e[5mC]*e[5mC]*e[5mC]*e[5mC]*e[5mC]*dT*dT*d[5mC]*dT*dT*dT*dA*dT*dA*dG*e[5mC]*e[5mC]*eA*eG*e[5mC]) [compound 546343]	0	–	38	79	46	–	66	86	74	95	37	32	83	400	28	64	87	87	400	% inhibition (human PKK mRNA [3]; Table 9 experiment, HepaRG cells, 20,000 cells per well): 97%; % inhibition (human PKK mRNA [3]; Table 10 experiment, HepaRG cells, 20,000 cells per well): 91%
546254 (eT*eG*e[5mC]*eA*eA*dG*dT*d[5mC]*dT*d[5mC]*dT*dT*dG*dG*d[5mC]*eA*eA*eA*e[5mC]*eA) [compound 546254]	0	36	51	76	31	55	84	83	88	95	40	63	84	300	51	66	80	91	200	% inhibition (human PKK mRNA [3]; Table 8, HepaRG cells): 95%
